The values below are quoted from earlier work in US20250235578A1, “WOUND DRESSING COMPOSITIONS AND METHODS OF USE AND PREPARATION THEROF” (T.J.Smith and Nephew,Limited, priority 2021, published 2025).

For this series the following is noted: under normal conditions.

With `[N]=O` [NO, nitric oxide], the “maximum solubility in water” value was “approximately 1.7 mM”.
